Tests used:
[1] = test system: Mycobacterium tuberculosis CDC1551 (intracellular, in murine BMDM); experiment: area under intracellular growth-inhibition dose-response curve (AUC (% inhibition x dose, relative)); higher = more potent; conditions: duration: 6 days; dose range: 0.13-80 uM, 8 points
Summary of the method: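 Each value is an area under the growth-inhibition dose–response curve, calculated with GraphPad Prism. Infected primary murine bone marrow-derived macrophages, carrying luciferase-expressing M. tuberculosis CDC1551 at multiplicity of infection 1, were treated for 6 days with an 8-dose, 2.5-fold series (final 80–0.13 μM) in 384-well opaque plates. Readout was by Bright-Glo luciferin assay, normalised to a reference drug control and the lowest-concentration wells.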

[2] = test system: murine bone marrow-derived macrophages; experiment: area under cytotoxicity dose-response curve (AUC (% cytotoxicity x dose, relative)); higher = more cytotoxic; conditions: duration: 6 days; dose range: 0.13-80 uM, 8 points
Summary of the method: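 An 8-point, 2.5-fold dilution series (final 80–0.13 μM) was applied for 6 days at 37 °C in 5% CO2 to primary murine bone marrow-derived macrophages plated in opaque 384-well plates. Promega's CellTiter-Glo luminescence assay measured viability, and percent cytotoxicity was normalised against vehicle and positive control wells. The area under the dose–response curve, worked out in GraphPad Prism version 10, is the reported cytotoxicity measure.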

SMILES	area under intracellular growth-inhibition dose-response curve [1]	area under cytotoxicity dose-response curve [2]
COc1ccc(NC(=O)C(C)NC2=NS(=O)(=O)c3ccccc32)cc1S(N)(=O)=O (configuration not stated)	63.2	8.48
O=C(c1ccc([N+](=O)[O-])o1)N1CCN(c2nc3c(Cl)cccc3s2)CC1	18.1	124
O=C(CSc1ccccc1)NNC(=O)c1ccncc1	219	18.7
CCCC12CN3CCN(CC(C3)/C1=N\NC(=O)c1ccncc1)C2	233	28.1
COc1ccc(-c2n(C)c3ccccc3[n+]2CC(=O)OC2CC(C)CCC2C(C)C)cc1.[Cl-] (configuration not stated)	140	117
Cc1ccc(OCCCC(=O)Nc2ccc(S(=O)(=O)N3CCOCC3)cc2)cc1	53.8	3.26
CCOC(=O)C(CC)(CC)/C(C)=N/NC(=O)CC#N	19.5	20
Cc1nn(-c2ccccc2)cc1/C=N/NC(N)=S	274	24.4
O=C(Nc1ccc(S(=O)(=O)Nc2nccs2)cc1)c1c(F)c(F)c(F)c(F)c1F	82.5	64.8
COc1cccc(NC(=O)NC2CCCCCCC2)c1	162	103
COc1ccc(CCNC(=O)c2ccc(Cl)cc2)cc1	241	< 0
O=C(NC1CCCC1)c1cc2ccccc2o1	225	56.4
COc1c(N2CCN(C(=S)NC3CC4CCC3C4)C(C)C2)c(F)cc2c(=O)c(C(=O)O)cn(C3CC3)c12 (configuration not stated)	239	8.11
C/C(CC(=O)Nc1ccc(N(C)C)cc1)=N\NC(=O)c1ccncc1	219	20.2
CC1CN(c2ccc(NC(=S)Nc3ccc(N4CC(C)OC(C)C4)cc3)cc2)CC(C)O1 (configuration not stated)	186	17.3
Cc1nnc(NCc2cccc(Cl)c2)c2ccccc12	211	128
O=C(/C=C/c1ccccc1Cl)NCc1ccco1	174	79.7
CCOC(=O)CCCc1ccc(/C(C)=N/NC(N)=S)cc1	156	65.1
O=C(NCc1ccccc1)c1ccc(Br)o1	267	19.6
O=C(NCCc1ccc(Cl)cc1)c1ccc(CNc2c(N3CCOCC3)c(=O)c2=O)cc1	162	< 0
CNC[C@@H](CC1CCCCC1)NC[C@H](CC(C)C)NCCc1cccc(C(F)(F)F)c1	197	94

SMILES	area under intracellular growth-inhibition dose-response curve [1]	area under cytotoxicity dose-response curve [2]
COc1cccc2c1C(=O)c1c(O)c3c(c(O)c1C2=O)C[C@@](O)(C(=O)CO)C[C@@H]3O[C@H]1C[C@H](N)[C@H](O)[C@H](C)O1.Cl	117	147
CC(=O)Nc1ccc(Sc2ccc([N+](=O)[O-])o2)cc1	108	21.3
C=C1c2cccc(O)c2C(=O)C2C(=O)[C@]3(O)C(=O)C(C(N)=O)C(=O)[C@@H](N(C)C)[C@@H]3[C@@H](O)[C@H]12.Cl (some centres not stated)	272	3.53
Cc1ccnc2c1ccc1cccnc12	149	208
C/C(=N\NC(N)=S)c1ccncc1	138	113
CCOc1ccc2oc(C(=O)OCC(=O)NC3CCCCC3)c(C)c2c1	119	< 0
O=C(Nc1ccc(C(=O)Oc2ccccc2)c(O)c1)c1ccccc1	210	93.1
CCc1ccc(OCC(=O)NC(=S)Nc2ccc(C(C)=O)cc2)c(Br)c1	238	< 0
C[C@H]1COc2c(N3CCN(C)CC3)c(F)cc3c(=O)c(C(=O)O)cn1c23	200	137
CCOc1ccc(-c2cc(C)[n+](CCc3ccc(OC)c(OC)c3)c(-c3ccc(OCC)cc3)c2)cc1.[O-][Cl+3]([O-])([O-])[O-]	60.7	102
CC(=O)c1c(C)[n+]([O-])c2cc(F)c(F)cc2[n+]1[O-]	45.9	13.7
Nc1ccc(C(=O)O)c(O)c1	182	62.3
CC1CCN(Cc2nc(-c3ccccc3)no2)CC1.Cl	175	111
CC1CCC(C(C)C)C(OC(=O)Cn2c(-c3ccccc3)[n+](C)c3ccccc32)C1.[Cl-] (configuration not stated)	124	12.5
COc1cccc(OCC(=O)NC2CCCCCC2)c1	266	22.4
O=C(NCc1ccccc1Cl)c1ccc(Br)o1	120	< 0
NC(=S)N/N=C/c1ccc(-c2cccc([N+](=O)[O-])c2)o1	206	51.4
NC(=S)N/N=C/c1c[nH]c2ccccc12	231	35.6
Cc1nnc(SCC2=C(C(=O)O)N3C(=O)C(NC(=O)COc4ccccc4)C3SC2)s1 (configuration not stated)	151	73.9
CCOC(=O)N=Nc1c2nc3nonc3[nH]c-2c2ccccc12	136	186
Cc1ccc(S(=O)(=O)[O-])cc1.c1cnc2c(c1)ccc1ccc[nH+]c12	94	114

SMILES	area under intracellular growth-inhibition dose-response curve [1]	area under cytotoxicity dose-response curve [2]
COc1ccc(CCNc2cc(-c3ccccc3)nc3ncnn23)cc1	218	< 0
O=C(COC(=O)Cc1cccs1)NCC(=O)Nc1ccc(F)cc1	< 0	45.1
COc1ccccc1C(CNC(=O)CN1C(=O)NC(C)(c2ccc3ccccc3c2)C1=O)N1CCCC1 (configuration not stated)	93.4	44.4
O=C(C=Cc1ccccc1)N1CCCCC1	119	46.5
CCC(=O)N1CCN(c2ccc(NC(=S)NC(=O)COc3ccccc3)cc2)CC1	194	76.2
CCC12CN3CCN(CC(C3)/C1=N/NC(=O)c1ccncc1)C2	206	13.3
Cc1ccc2c(c1)sc(-c1ccc(N(C)C)cc1)[n+]2C.[I-]	< 0	125
O=C(NC12CC3CC(CC(C3)C1)C2)c1ccc(Br)o1	171	< 0
NC(=S)N/N=C1\CCOc2ccc(F)cc21	232	< 0
Cc1c(Cl)sn(-c2ccc(Cl)cc2)c1=O	130	60.1
COCCCNCC(=O)Nc1sc(C)c(C)c1C(=O)OC.O=C(O)C(=O)O	76.8	48.9
Cl.c1ccc(-c2nc(NCCCn3ccnc3)c3oc4ccccc4c3n2)cc1	172	34.7
O=C(NCC(c1cccs1)N1CCOCC1)c1cc([N+](=O)[O-])cc([N+](=O)[O-])c1 (configuration not stated)	276	20.1
Cc1nn(CC(=O)NC2C(=O)N3C(C(=O)O)=C(CSc4nnnn4C)CSC23)cc1Br (configuration not stated)	236	30.6
CC1=CCCC(C)(C)C1/C=C/C(C)=N/NC(=O)c1ccncc1 (configuration not stated)	247	< 0
O=C(CSc1cccc[n+]1[O-])Nc1ccccc1Oc1ccccc1	39.4	53.2
C/C(CC(=O)Nc1ccccc1C#N)=N\NC(=O)c1ccncc1	229	98.9
CNC(=S)Nc1ccc(OCc2ccccc2)cc1	242	75.3
CC1CCc2c(N3CCC(O)CC3)c(F)cc3c(=O)c(C(=O)O)cn1c23 (configuration not stated)	162	67

— the supplement of paper PMC11997997
